# Experimental data taken from patent publication US12331046B2, “CTPS1 inhibitors and uses thereof” (Nimbus Clotho, Inc., priority 2020, dated 2025).
# “And” between values parts separate entries of the source, which are not always exact repeats. Identical values can stand only once. Counter-ions that a name gives are not always drawn.
# Molecular target: human CTPS1 (Homo sapiens (Human), UniProt P17812)
# Assay: hCTPS1 biochemical assay (ADP-Glo)
# Settings: hCTPS1 25 nM, ATP 120 uM, UTP 160 uM, GTP 60 uM, L-Glutamine 100 uM, 25 degrees C
# human CTPS1, sequence (P17812 whole entry): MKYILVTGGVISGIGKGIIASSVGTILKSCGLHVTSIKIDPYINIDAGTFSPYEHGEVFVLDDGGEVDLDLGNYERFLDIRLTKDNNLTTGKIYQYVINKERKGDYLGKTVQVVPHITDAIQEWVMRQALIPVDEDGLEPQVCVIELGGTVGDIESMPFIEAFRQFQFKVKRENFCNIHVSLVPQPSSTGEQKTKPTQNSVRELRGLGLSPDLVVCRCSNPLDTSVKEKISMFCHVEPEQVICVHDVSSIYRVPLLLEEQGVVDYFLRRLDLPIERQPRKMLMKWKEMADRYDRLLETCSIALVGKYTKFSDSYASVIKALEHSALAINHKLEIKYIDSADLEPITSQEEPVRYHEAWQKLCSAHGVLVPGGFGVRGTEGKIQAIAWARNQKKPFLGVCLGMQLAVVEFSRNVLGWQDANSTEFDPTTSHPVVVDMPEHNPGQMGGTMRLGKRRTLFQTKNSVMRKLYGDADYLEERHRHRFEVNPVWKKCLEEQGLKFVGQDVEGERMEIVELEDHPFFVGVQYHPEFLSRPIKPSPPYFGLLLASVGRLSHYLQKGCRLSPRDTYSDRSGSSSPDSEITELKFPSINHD
row,IC50,SMILES
1,100 to 1000 nM,O=C(NCc1cc(NS(=O)(=O)C2CC2)ccn1)c1ncc(-c2cnc3ccc(Cl)cn23)s1 [I-170]
2,< 100 nM,"CCOc1cncc(-c2cnc(C(=O)NCc3cc(F)cc(NS(=O)(=O)C4CC4)c3F)s2)n1 [I-250, N-[(3-cyclopropanesulfonamido-2,5-difluorophenyl)methyl]-5-(6-ethoxypyrazin-2-yl)-1,3-thiazole-2-carboxamide]"
3,< 100 nM,"CCOc1cncc(-c2cnc(C(=O)N[C@H](CN3CCN(C4CC4)CC3)c3cc(NS(=O)(=O)C4CC4)ccn3)s2)n1 (single isomer, unassigned) [I-120]"
4,≥ 1000 nM,Cc1cn2cc(-c3ccc(C(=O)NCc4cc(NS(=O)(=O)C5CC5)ccn4)nc3)cnc2n1 [I-31]
5,≥ 1000 nM,"Cc1cn(-c2ccc(C(=O)NC3(c4csc(NS(=O)(=O)C5CC5)n4)CC3)nc2)cn1 [I-8, N-(1-(2-(cyclopropanesulfonamido)thiazol-4-yl)cyclopropyl)-5-(4-methyl-1H-imidazol-1-yl)picolinamide]"
6,< 100 nM,"CCOc1cncc(-c2cnc(C(=O)N[C@H](CCN3CC[C@H](F)C3)c3cc(NS(=O)(=O)C4CC4)ccn3)s2)n1 [I-126, N—((R)-1-(4-(cyclopropanesulfonamido)pyridin-2-yl)-3-((S)-3-fluoropyrrolidin-1-yl)propyl)-5-(6-ethoxypyrazin-2-yl)thiazole-2-carboxamide]"
7,< 100 nM,"CCOc1cncc(-c2cnc(C(=O)N[C@H](C[C@@H]3CCCCN3C)c3cc(NS(=O)(=O)C4CC4)ccn3)s2)n1 (single isomer, unassigned) [I-136]"
8,100 to 1000 nM,O=C(NCc1cc(NS(=O)(=O)C2CC2)ccn1)c1ccc(-c2cncc(N3CCCC3)n2)cc1 [I-42]
9,≥ 1000 nM,"CCC[C@@H]1CCN1c1ncc(C(=O)NCc2cc(NS(=O)(=O)C3CC3)ccn2)nc1C [I-60, (R)—N-((4-(cyclopropanesulfonamido)pyridin-2-yl)methyl)-6-methyl-5-(2-propylazetidin-1-yl)pyrazine-2-carboxamide]"
10,< 100 nM,CCOc1cncc(-c2cnc(C(=O)NC(COC)c3cc(NS(=O)(=O)C4CC4)ccn3)s2)n1 (centres unmarked) [I-194]
11,≥ 1000 nM,"CCOc1cncc(-c2ccc(C(=O)NCc3ccnc(NS(=O)(=O)N4CCC4)n3)nc2)n1 [I-82, N-((2-(azetidine-1-sulfonamido)pyrimidin-4-yl)methyl)-5-(6-ethoxypyrazin-2-yl)picolinamide]"
12,< 100 nM,O=C(NCc1cc(NS(=O)(=O)C2CC2)ccn1)c1ncc(-c2cnn3ccc(Cl)cc23)s1 [I-197]
13,< 100 nM,"CCOc1cncc(-c2cnc(C(=O)N[C@H](CN3CCOCC3(C)C)c3cc(NS(=O)(=O)C4CC4)ccn3)s2)n1 (single isomer, unassigned) [I-117]"
14,100 to 1000 nM,"CCOc1cncc(-c2cnc(C(=O)N3CCC[C@@H]3c3ccnc(NS(=O)(=O)C4CC4)n3)s2)n1 [I-270, N-[4-[(2R)-1-[5-(6-ethoxypyrazin-2-yl)-1,3-thiazole-2-carbonyl]pyrrolidin-2-yl]pyrimidin-2-yl]cyclopropanesulfonamide]"
15,< 100 nM,"CCOc1cncc(-c2cnc(C(=O)N[C@H](C[C@H]3CCCCN3C)c3cc(NS(=O)(=O)C4CC4)ccn3)s2)n1 [I-145, N—((R)-1-(4-(cyclopropanesulfonamido)pyridin-2-yl)-2-((R)-1-methylpiperidin-2-yl)ethyl)-5-(6-ethoxypyrazin-2-yl)thiazole-2-carboxamide]"
16,< 100 nM,"CCOc1cncc(-c2ccc(C(=O)NCc3cncc(NS(=O)(=O)C4CC4)c3)nc2)n1 [I-26, N-((5-(cyclopropanesulfonamido)pyridin-3-yl)methyl)-5-(6-ethoxypyrazin-2-yl) picolinamide]"
17,< 100 nM,"CCOc1cncc(-c2cnc(C(=O)NC(CCN3CCOCC3)c3cc(NS(=O)(=O)C4CC4)ccn3)s2)n1 (centres unmarked) [I-179, N-(1-(4-(cyclopropanesulfonamido)pyridin-2-yl)-3-morpholinopropyl)-5-(6-ethoxypyrazin-2-yl)thiazole-2-carboxamide]"
18,< 100 nM,"CCOc1cncc(-c2cnc(C(=O)NC(CCCN(C)C)c3cc(NS(=O)(=O)C4CC4)ccn3)s2)n1 (centres unmarked) [I-173, N-(1-(4-(cyclopropanesulfonamido)pyridin-2-yl)-4-(dimethylamino)butyl)-5-(6-ethoxypyrazin-2-yl)thiazole-2-carboxamide, formic acid salt]"
19,< 100 nM,"CCOc1cncc(-c2cnc(C(=O)NC(CCN3CCCC3)c3cc(NS(=O)(=O)C4CC4)ccn3)s2)n1 (centres unmarked) [I-175, N-(1-(4-(cyclopropanesulfonamido)pyridin-2-yl)-3-(pyrrolidin-1-yl)propyl)-5-(6-ethoxypyrazin-2-yl)thiazole-2-carboxamide]"
20,< 100 nM,"CCOc1cncc(-c2cnc(C(=O)N[C@@H](CN3CCN(C4CC4)CC3)c3cc(NS(=O)(=O)C4CC4)ccn3)s2)n1 (single isomer, unassigned) [I-119]"

row,IC50,SMILES
1,< 100 nM and ≥ 1000 nM,"CCOc1cncc(-n2ccc(C(=O)NC3(c4cccc(NS(=O)(=O)C(F)F)c4)CC3)n2)n1 [I-282, N-[1-[3-(difluoromethanesulfonamido)phenyl]cyclopropyl]-1-(6-ethoxypyrazin-2-yl)pyrazole-3-carboxamide]"
2,< 100 nM,"CC[C@H](NC(=O)c1ncc(-c2cnn3ccc(Cl)cc23)s1)c1cc(NS(=O)(=O)C2CC2)ccn1 [I-150, (S)-5-(5-chloropyrazolo[1,5-a]pyridin-3-yl)-N-(1-(4-(cyclopropanesulfonamido)pyridin-2-yl)propyl)thiazole-2-carboxamide]"
3,≥ 1000 nM,"CCOc1cncc(-n2ccc(C(=O)N3CCC[C@@H]3c3cccc(NS(=O)(=O)C(F)F)c3)n2)n1 [I-79, N-[3-[(2R)-1-[1-(6-ethoxypyrazin-2-yl)pyrazole-3-carbonyl]pyrrolidin-2-yl]phenyl]-1,1-difluoromethanesulfonamide]"
4,≥ 1000 nM,"CCOc1cncc(-n2cnc(C(=O)N3CCC[C@@H]3c3ccnc(NS(=O)(=O)C4CC4)n3)c2)n1 [I-275, N-[4-[(2R)-1-[1-(6-ethoxypyrazin-2-yl)imidazole-4-carbonyl]pyrrolidin-2-yl]pyrimidin-2-yl]cyclopropanesulfonamide]"
5,< 100 nM,"CCOc1cncc(-n2cc(C(=O)NC3(c4cccc(NS(=O)(=O)C(F)F)c4)CC3)cn2)n1 [I-274, N-[1-[3-(difluoromethanesulfonamido)phenyl]cyclopropyl]-1-(6-ethoxypyrazin-2-yl)pyrazole-4-carboxamide]"
6,< 100 nM,"CCOc1cncc(-n2cnc(C(=O)NC3(c4cccc(NS(=O)(=O)C(F)F)c4)CC3)c2)n1 [I-283, N-[1-[3-(difluoromethanesulfonamido)phenyl]cyclopropyl]-1-(6-ethoxypyrazin-2-yl)imidazole-4-carboxamide]"
7,< 100 nM,"CCOc1cncc(-c2cnc(C(=O)N[C@H](CN3CCN(C(C)C)CC3)c3cc(NS(=O)(=O)C4CC4)ccn3)s2)n1 (single isomer, unassigned) [I-121]"
8,≥ 1000 nM,COC1CN(c2cncc(-c3ccc(C(=O)NCc4cc(NS(=O)(=O)C5CC5)ccn4)cc3)n2)C1 [I-46]
9,≥ 1000 nM,"C[C@@H]1Cc2nc(C(=O)NCc3cc(NS(=O)(=O)C4CC4)ccn3)cnc2N(C2CCC2)C1 [I-264, (R)-5-cyclobutyl-N-((4-(cyclopropanesulfonamido)pyridin-2-yl)methyl)-7-methyl-5,6,7,8-tetrahydropyrido[2,3-b]pyrazine-2-carboxamide]"
10,< 100 nM,"CCOc1cncc(-c2ccc(C(=O)NCc3cc(NS(=O)(=O)C4CC4)ncn3)cc2)n1 [I-29, N-((6-(cyclopropanesulfonamido)pyrimidin-4-yl)methyl)-4-(6-ethoxypyrazin-2-yl)benzamide]"
11,< 100 nM,"CCOc1cncc(-c2sc(C(=O)N[C@@H](CC)c3cc(NS(=O)(=O)C4CC4)ccn3)nc2C)n1 [I-219, (S)—N-(1-(4-(cyclopropanesulfonamido)pyridin-2-yl)propyl)-5-(6-ethoxypyrazin-2-yl)-4-methylthiazole-2-carboxamide]"
12,< 100 nM,O=C(NCc1cc(NS(=O)(=O)C2CC2)ccn1)c1ncc(-c2cncc(Cl)c2)s1 [I-252]
13,< 100 nM,"CCOc1cncc(-c2ccc(C(=O)N3CCCC3c3ccnc(NS(=O)(=O)C4CC4)n3)nc2)n1 (stereo in doubt) [I-34, N-[4-[(2S)-1-[5-(6-ethoxypyrazin-2-yl)pyridine-2-carbonyl]pyrrolidin-2-yl]pyrimidin-2-yl]cyclopropanesulfonamide]"
14,< 100 nM,"CCOc1cncc(-c2cnc(C(=O)NCc3cc(NS(=O)(=O)C4CC4)ccn3)s2)c1 [I-242, N-((4-(cyclopropanesulfonamido)pyridin-2-yl)methyl)-5-(5-ethoxypyridin-3-yl)thiazole-2-carboxamide]"
15,< 100 nM,"CCOc1cncc(-c2cnc(C(=O)N[C@H](CN3CCN(C)CC3)c3cc(NS(=O)(=O)C4CC4)ccn3)s2)n1 (single isomer, unassigned) [I-192]"
16,< 100 nM,"CCOc1cncc(-c2cnc(C(=O)N[C@@H](CN3CC(F)C3)c3cc(NS(=O)(=O)C4CC4)ccn3)s2)n1 (single isomer, unassigned) [I-203]"
17,< 100 nM,"CCOc1cncc(-c2cnc(C(=O)NC3(c4cccc(NS(=O)(=O)C(F)F)c4)CC3)s2)n1 [I-69, N-[1-[3-(difluoromethanesulfonamido)phenyl]cyclopropyl]-5-(6-ethoxypyrazin-2-yl)-1,3-thiazole-2-carboxamide]"
18,< 100 nM,"CCOc1cncc(-c2ccc(C(=O)NCc3cc(NS(=O)(=O)CC(F)(F)F)ccn3)nc2)n1 [I-66, 5-(6-ethoxypyrazin-2-yl)-N-((4-((2,2,2-trifluoroethyl)sulfonamido)pyridin-2-yl)methyl)picolinamide]"
19,100 to 1000 nM,"O=C(NC1(c2csc(NS(=O)(=O)C3CC3)n2)CC1)c1ccc2ccccc2c1 [I-1, N-(1-(2-(cyclopropanesulfonamido)thiazol-4-yl)cyclopropyl)-2-naphthamide]"

row,SMILES,IC50
1,"CCOc1cncc(-c2cnc(C(=O)NCc3cc(NS(=O)(=O)C4CC4)ccn3)o2)n1 [I-56, N-((4-(cyclopropanesulfonamido)pyridin-2-yl)methyl)-5-(6-ethoxypyrazin-2-yl)oxazole-2-carboxamide]",≥ 1000 nM
2,CCOc1cncc(-c2nnc(C(=O)NCc3cc(NS(=O)(=O)C4CC4)ccn3)o2)n1 [I-57],≥ 1000 nM
